From patent US20260297060A1, “COMPOUNDS FOR THE DEGRADATION OF MUTANT BRAF” (C4 THERAPEUTICS, INC., priority 2023, published 2026)
Like-named read-outs stand apart in the source and are kept apart here.

Key:
A375-NRAS^Q61K cells = test: CTGlo Cell Viability Assay, A375-NRAS^Q61K (A375.11) cells, 96 hours; assay type: cell-based, human; settings: A375.11 (A375-NRAS^Q61K) cells; for CTGlo A375.11 96 hours Emax / Emax: lowest % viability achieved
Method in brief: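 A375 cells carrying BRAF V600E and NRAS Q61K were seeded at 250 cells/well with a 10-point half-log dose series (max 10 μM final). After 96 h at 37 °C, viability was read as ATP luminescence (CellTiter-Glo), background-subtracted and normalized to DMSO (100%). GI50 from 4-parameter fit; Emax is the lowest % viability.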

BRAF V600E = biological target: T1, BRAF V600E (Homo sapiens, UniProt P15056+Q96SW2, V600E); test: BRAF V600E HiBiT Degradation Assay; assay type: cell-based
T1 construct: knock-in of the HiBiT tag to the endogenous BRAF V600E locus; host or cells: A375.10 (A375 clonal line, CRISPR HiBiT knock-in at the endogenous BRAF V600E locus)
Method in brief: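 Endogenous HiBiT knock-in on BRAF V600E in A375 cells (clone A375.10); 11-point half-log series, top 10 μM, 2, 6 or 24 h at 37° C. Lytic HiBiT luminescence, background-subtracted, normalized to DMSO; 4-parameter fit gives DC50, Emax (residual protein) and IP (inflection point).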

[1] = A375.10 cells, BRAF V600E, 2 hours, residual protein remaining
[2] = A375.10 cells, HiBiT, BRAF V600E, 24 hours, read-out: HiBiT-Degradation A375.10 BRAF 24 hours DC50
[3] = A375.10 cells, HiBiT, BRAF V600E, 24 hours, read-out: HiBiT-Degradation A375.10 BRAF 24 hours Emax
[4] = A375.10 cells, HiBiT, BRAF V600E, 24 hours, read-out: HiBiT-Degradation A375.10 BRAF 24 hours IP
[5] = A375.10 cells, BRAF V600E, 2 hours, inflection point, read-out: HiBiT-Degradation A375.10 BRAF 2 hours IP
[6] = A375.10 cells, BRAF V600E, 2 hours, read-out: HiBiT-Degradation A375.10 BRAF 2 hours DC50
[7] = A375.10 cells, BRAF V600E, 2 hours, residual protein remaining, read-out: HiBiT-Degradation A375.10 BRAF 2 hours Emax
[8] = A375.10 cells, HiBiT, BRAF V600E, 24 hours

T1 sequence (P15056 whole entry V600E): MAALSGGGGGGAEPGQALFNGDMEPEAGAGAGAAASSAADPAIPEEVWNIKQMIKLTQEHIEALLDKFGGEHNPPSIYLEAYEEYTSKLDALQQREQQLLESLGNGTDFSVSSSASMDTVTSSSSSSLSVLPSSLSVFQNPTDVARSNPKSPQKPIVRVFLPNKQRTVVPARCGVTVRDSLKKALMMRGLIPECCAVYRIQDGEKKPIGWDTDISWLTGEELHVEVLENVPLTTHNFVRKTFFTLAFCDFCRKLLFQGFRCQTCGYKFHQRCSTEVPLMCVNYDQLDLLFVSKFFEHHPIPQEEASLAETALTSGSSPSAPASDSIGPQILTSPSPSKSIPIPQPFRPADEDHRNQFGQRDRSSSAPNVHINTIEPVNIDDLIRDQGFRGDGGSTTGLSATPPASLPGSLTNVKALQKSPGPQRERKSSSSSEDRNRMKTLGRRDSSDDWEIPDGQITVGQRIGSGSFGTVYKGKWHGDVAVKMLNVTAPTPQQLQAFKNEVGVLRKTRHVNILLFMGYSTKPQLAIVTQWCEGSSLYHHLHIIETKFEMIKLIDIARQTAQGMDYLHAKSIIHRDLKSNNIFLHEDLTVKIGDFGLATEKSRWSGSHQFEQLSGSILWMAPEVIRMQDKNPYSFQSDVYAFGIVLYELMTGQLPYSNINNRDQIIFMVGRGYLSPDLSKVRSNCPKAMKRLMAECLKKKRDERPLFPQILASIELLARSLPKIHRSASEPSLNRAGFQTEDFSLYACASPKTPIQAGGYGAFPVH
T1 sequence (Q96SW2 whole entry): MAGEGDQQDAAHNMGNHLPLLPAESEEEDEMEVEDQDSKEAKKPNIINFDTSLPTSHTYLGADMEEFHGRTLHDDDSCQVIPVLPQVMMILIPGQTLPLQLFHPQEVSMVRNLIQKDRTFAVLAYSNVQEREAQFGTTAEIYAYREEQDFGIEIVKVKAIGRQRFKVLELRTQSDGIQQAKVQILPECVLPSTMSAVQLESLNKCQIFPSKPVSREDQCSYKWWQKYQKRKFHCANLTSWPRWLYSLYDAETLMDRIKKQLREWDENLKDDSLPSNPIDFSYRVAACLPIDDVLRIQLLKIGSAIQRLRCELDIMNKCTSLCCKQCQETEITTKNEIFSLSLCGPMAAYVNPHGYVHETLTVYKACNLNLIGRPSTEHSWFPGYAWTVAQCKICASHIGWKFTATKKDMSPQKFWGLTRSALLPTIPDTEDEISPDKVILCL
T1 sequence (Q16531 whole entry partner): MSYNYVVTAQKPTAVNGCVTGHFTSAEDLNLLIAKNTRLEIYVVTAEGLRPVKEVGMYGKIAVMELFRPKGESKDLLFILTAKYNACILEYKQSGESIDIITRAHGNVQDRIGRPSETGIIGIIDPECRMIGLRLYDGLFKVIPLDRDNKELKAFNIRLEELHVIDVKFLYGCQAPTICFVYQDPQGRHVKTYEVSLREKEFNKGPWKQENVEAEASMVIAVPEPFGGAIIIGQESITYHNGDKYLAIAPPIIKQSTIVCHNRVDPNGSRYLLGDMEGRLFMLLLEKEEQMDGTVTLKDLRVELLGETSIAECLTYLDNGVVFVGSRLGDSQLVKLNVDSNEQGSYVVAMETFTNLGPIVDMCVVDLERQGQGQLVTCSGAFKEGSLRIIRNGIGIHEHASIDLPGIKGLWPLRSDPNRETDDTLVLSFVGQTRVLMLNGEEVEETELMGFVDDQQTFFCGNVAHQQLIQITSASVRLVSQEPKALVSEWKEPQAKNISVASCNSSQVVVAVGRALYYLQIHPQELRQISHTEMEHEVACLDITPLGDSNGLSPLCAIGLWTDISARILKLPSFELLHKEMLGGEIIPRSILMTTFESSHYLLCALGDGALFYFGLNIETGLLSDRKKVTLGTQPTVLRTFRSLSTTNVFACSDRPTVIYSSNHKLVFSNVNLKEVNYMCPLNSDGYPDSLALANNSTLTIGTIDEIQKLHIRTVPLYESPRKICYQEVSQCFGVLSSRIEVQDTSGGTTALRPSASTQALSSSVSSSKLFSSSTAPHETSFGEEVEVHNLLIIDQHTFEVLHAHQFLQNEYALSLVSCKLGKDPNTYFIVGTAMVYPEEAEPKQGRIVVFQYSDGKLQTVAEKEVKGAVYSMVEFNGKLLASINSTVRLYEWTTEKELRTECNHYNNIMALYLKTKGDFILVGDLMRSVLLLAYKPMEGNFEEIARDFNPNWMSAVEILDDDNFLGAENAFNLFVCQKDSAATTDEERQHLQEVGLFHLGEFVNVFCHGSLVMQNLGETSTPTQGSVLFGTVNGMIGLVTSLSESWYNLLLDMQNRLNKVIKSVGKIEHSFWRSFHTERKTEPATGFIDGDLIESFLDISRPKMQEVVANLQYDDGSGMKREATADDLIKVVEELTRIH

Row | GI50 (A375-NRAS^Q61K cells) [nM] | HiBiT-Degradation A375.10 BRAF 2 hours Emax (BRAF V600E; [1]) | DC50 (BRAF V600E; [2]) [nM] | Emax (BRAF V600E; [3]) [%] | DC50 (BRAF V600E; [4]) [nM] | DC50 (BRAF V600E; [5]) [nM] | DC50 (BRAF V600E; [6]) [nM] | Emax (BRAF V600E; [7]) [%] | GI50 (A375-NRAS^Q61K cells; Homo sapiens, 96 h) [nM] | HiBiT-Degradation A375.10 BRAF 24 hours Emax (BRAF V600E; [8]) | Emax (BRAF V600E; read-out: HiBiT-Degradation A375.10 BRAF 2 hours Emax, A375.10 cells, BRAF V600E, 2 hours, residual protein remaining) [%] | Structure (SMILES) | CTGlo A375.11 96 hours Emax (A375-NRAS^Q61K cells) | Emax (A375-NRAS^Q61K cells; Homo sapiens, 96 h) [%]
1 | < 1000 | *** (<=50%) | < 1000 | < 50 | < 1000 |  |  |  |  |  |  | CCN(C)S(=O)(=O)Nc1ccc(F)c(Oc2ccc3ncn([C@@H]4CO[C@@]5(CCN(C6CCC(c7cc8c(cc7F)c(N7CCC(=O)NC7=O)nn8C)CC6)C5)C4)c(=O)c3c2)c1C#N (single isomer, unassigned) [Compound 287] | *** (<=50%) | 
2 | > 10000 |  |  |  |  | < 1000 | 1000 to 10000 | 50 to 90 |  |  |  | CCN(C)S(=O)(=O)Nc1ccc(F)c(Oc2ccc3ncn([C@H]4CO[C@]5(CCN(C6CCC(c7cc8c(cc7F)c(N7CCC(=O)NC7=O)nn8C)CC6)C5)C4)c(=O)c3c2)c1C#N (single isomer, unassigned) [Compound 288] |  | 50 to 90
3 | < 1000 | *** (<=50%) | < 1000 | < 50 | < 1000 | < 1000 | < 1000 |  |  |  |  | CCN(C)S(=O)(=O)Nc1ccc(F)c(Oc2ccc3ncn([C@H]4CO[C@]5(CCN(C6CCC(c7cc8c(cc7F)c(N7CCC(=O)NC7=O)nn8C)CC6)C5)C4)c(=O)c3c2)c1C#N (single isomer, unassigned) [Compound 289] | *** (<=50%) | 
4 | > 10000 |  |  |  |  | < 1000 | 1000 to 10000 | 50 to 90 |  |  |  | CCN(C)S(=O)(=O)Nc1ccc(F)c(Oc2ccc3ncn([C@@H]4CO[C@]5(CCN(C6CCC(c7cc8c(cc7F)c(N7CCC(=O)NC7=O)nn8C)CC6)C5)C4)c(=O)c3c2)c1C#N (single isomer, unassigned) [Compound 290] | ** (<90% and >50%) | 
5 | 1000 to 10000 | ** (<90% and >50%) |  |  |  | < 1000 | > 10000 |  |  |  |  | CCN(C)S(=O)(=O)Nc1ccc(F)c(Oc2ccc3ncn([C@@H]4CO[C@]5(CCN(C6CCC(c7cc8c(cc7F)c(N7CCC(=O)NC7=O)nn8C)CC6)C5)C4)c(=O)c3c2)c1C#N (single isomer, unassigned) [Compound 291] | * (>=90%) | 
6 |  |  | < 1000 | < 50 | < 1000 | < 1000 | < 1000 | < 50 | < 1000 |  |  | CCN(C)S(=O)(=O)Nc1ccc(F)c(Oc2ccc3ncn([C@H]4CO[C@@]5(CCN(C6CCC(c7cc8c(cc7F)c(N7CCC(=O)NC7=O)nn8C)CC6)C5)C4)c(=O)c3c2)c1C#N (single isomer, unassigned) [Compound 292] |  | 50 to 90
7 | < 1000 | *** (<=50%) |  |  |  |  | < 1000 |  |  |  |  | CCN(C)S(=O)(=O)Nc1ccc(F)c(Oc2ccc3ncn([C@H]4CO[C@@]5(CCN(C6CCC(c7cc8c(cc7F)c(N7CCC(=O)NC7=O)nn8C)CC6)C5)C4)c(=O)c3c2)c1C#N (single isomer, unassigned) [Compound 293] | ** (<90% and >50%) | 
8 |  |  |  |  |  | < 1000 | < 1000 | 50 to 90 | 1000 to 10000 |  |  | CN(CCO)S(=O)(=O)Nc1ccc(F)c(Oc2ccc3ncc(C4CC5(CCN(C6CCC(c7cc8c(cc7F)c(N7CCC(=O)NC7=O)nn8C)CC6)CC5)C4)nc3c2)c1C#N (single isomer, unassigned) [Compound 294, 7-[2-cyano-6-fluoro-3-[[2-hydroxyethyl(methyl)sulfamoyl]amino]phenoxy]-2-[7-[4-[3-(2,4-dioxohexahydropyrimidin-1-yl)-5-fluoro-1-methyl-indazol-6-yl]cyclohexyl]-7-azaspiro[3.5]nonan-2-yl]quinoxaline] | ** (<90% and >50%) | 
9 | 1000 to 10000 | ** (<90% and >50%) |  |  |  | < 1000 | < 1000 |  |  |  |  | CN(CCO)S(=O)(=O)Nc1ccc(F)c(Oc2ccc3ncc(C4CC5(CCN(C6CCC(c7cc8c(cc7F)c(N7CCC(=O)NC7=O)nn8C)CC6)CC5)C4)nc3c2)c1C#N (single isomer, unassigned) [Compound 295, 7-[2-cyano-6-fluoro-3-[[2-hydroxyethyl(methyl)sulfamoyl]amino]phenoxy]-2-[7-[4-[3-(2,4-dioxohexahydropyrimidin-1-yl)-5-fluoro-1-methyl-indazol-6-yl]cyclohexyl]-7-azaspiro[3.5]nonan-2-yl]quinoxaline] | * (>=90%) | 
10 |  |  | < 1000 | < 50 | < 1000 | < 1000 | 1000 to 10000 | 50 to 90 | 1000 to 10000 |  |  | CCN(C)S(=O)(=O)Nc1ccc(F)c(Oc2ccc3ncc(C4CC5(C4)CN(C4CCC(c6cc7c(cc6F)c(N6CCC(=O)NC6=O)nn7C)CC4)C5)nc3c2)c1C#N (single isomer, unassigned) [Compound 297, 7-[2-cyano-3-[[ethyl(methyl)sulfamoyl]amino]-6-fluoro-phenoxy]-2-[2-[4-[3-(2,4-dioxohexahydropyrimidin-1-yl)-5-fluoro-1-methyl-indazol-6-yl]cyclohexyl]-2-azaspiro[3.3]heptan-6-yl]quinoxaline] |  | 50 to 90
11 | < 1000 | *** (<=50%) | < 1000 |  | < 1000 | < 1000 | < 1000 |  |  | *** (<=50%) |  | CCN(C)S(=O)(=O)Nc1ccc(F)c(Oc2ccc3ncc(C4CC5(C4)CN(C4CCC(c6cc7c(cc6F)c(N6CCC(=O)NC6=O)nn7C)CC4)C5)nc3c2)c1C#N (single isomer, unassigned) [Compound 298, 7-[2-cyano-3-[[ethyl(methyl)sulfamoyl]amino]-6-fluoro-phenoxy]-2-[2-[4-[3-(2,4-dioxohexahydropyrimidin-1-yl)-5-fluoro-1-methyl-indazol-6-yl]cyclohexyl]-2-azaspiro[3.3]heptan-6-yl]quinoxaline] | *** (<=50%) | 
12 |  |  | < 1000 | < 50 | < 1000 | < 1000 | 1000 to 10000 |  | 1000 to 10000 |  | 50 to 90 | CCN(C)S(=O)(=O)Nc1ccc(F)c(Oc2ccc3ncn(C4CC5(C4)CN(C4CCC(c6cc7c(cc6F)c(N6CCC(=O)NC6=O)nn7C)CC4F)C5)c(=O)c3c2)c1C#N (single isomer, unassigned) [Compound 299] |  | 50 to 90
13 | < 1000 | *** (<=50%) | < 1000 |  | < 1000 | < 1000 | < 1000 |  |  | *** (<=50%) |  | CCN(C)S(=O)(=O)Nc1ccc(F)c(Oc2ccc3ncn(C4CC5(C4)CN(C4CCC(c6cc7c(cc6F)c(N6CCC(=O)NC6=O)nn7C)CC4F)C5)c(=O)c3c2)c1C#N (single isomer, unassigned) [Compound 300] | ** (<90% and >50%) | 
14 |  |  |  |  |  | < 1000 | < 1000 | 50 to 90 | < 1000 |  |  | CCN(C)S(=O)(=O)Nc1ccc(F)c(Oc2ccc3ncn(C4CC5(CCN(C6CC7(C6)CN(c6cc8c(cc6F)c(N6CCC(=O)NC6=O)nn8C)C7)C5)C4)c(=O)c3c2)c1C#N (single isomer, unassigned) [Compound 301, 6-[2-cyano-3-[[ethyl(methyl)sulfamoyl]amino]-6-fluoro-phenoxy]-3-[6-[2-[3-(2,4-dioxohexahydropyrimidin-1-yl)-5-fluoro-1-methyl-indazol-6-yl]-2-azaspiro[3.3]heptan-6-yl]-6-azaspiro[3.4]octan-2-yl]-4-oxo-quinazoline] |  | 50 to 90
15 | < 1000 |  |  |  |  |  | < 1000 |  |  |  |  | CCN(C)S(=O)(=O)Nc1ccc(F)c(Oc2ccc3ncn(C4CC5(CCN(C6CC7(C6)CN(c6cc8c(cc6F)c(N6CCC(=O)NC6=O)nn8C)C7)C5)C4)c(=O)c3c2)c1C#N (single isomer, unassigned) [Compound 302, 6-[2-cyano-3-[[ethyl(methyl)sulfamoyl]amino]-6-fluoro-phenoxy]-3-[6-[2-[3-(2,4-dioxohexahydropyrimidin-1-yl)-5-fluoro-1-methyl-indazol-6-yl]-2-azaspiro[3.3]heptan-6-yl]-6-azaspiro[3.4]octan-2-yl]-4-oxo-quinazoline] |  | 
